Measured values published in patent US7468384B2, “Microbicidal composition” (Rohm and Haas Company, priority 2004, dated 2008).
Where two headings read alike, the source gives them in different places.

How the values were obtained:
Assay type in all cases: cell-based
[1] = tested on: Aspergillus niger (A. niger—ATCC 16404); assay: Synergy test, microtiter plate high resolution MIC assay, mold; set-up: key to SI (calculated synergy index) / SI (synergy index): SI = Qa/QA + Qb/QB (mixture vs. alone end-point concentrations); conditions: for MIC: Aspergillus niger
Excerpt: (§1) One measure of synergism is the industrially accepted method described by Kull, F. C.; Eisman, P. C.; Sylwestrowicz, H. D. and Mayer, R. L., in Applied Microbiology 9:538-541 (1961), using the ratio determined by the formula: Qa/QA+Qb/QB=Synergy Index (“SI”) wherein: • QA=concentration of compound A (first component) in ppm, acting alone, which produced an end point (MIC of Compound A). • Qa=concentration of compound A in ppm, in the mixture, which produced an end point. • QB=concentration of compound B (second component) in ppm, acting alone, which produced an end point (MIC of Compound B). • Qb=concentration of compound B in ppm, in the mixture, which produced an end point.
(§2) When the sum of Qa/QA and Qb/QB is greater than one, antagonism is indicated. […] The lower the SI, the greater the synergy shown by that particular mixture. The minimum inhibitory concentration (MIC) of a microbicide is the lowest concentration tested under a specific set of conditions that prevents the growth of added microorganisms.
(§3) Synergy tests were conducted using standard microtiter plate assays with media designed for optimal growth of the test microorganism. Soybean Casein Digest Broth (Tryptic Soy Broth, TSB medium) or minimal salt medium supplemented with 0.2% glucose and 0.1% yeast extract (M9GY medium) was used for testing bacteria; Potato Dextrose Broth (PDB medium) was used for testing yeast and mold. In this method, a wide range of combinations of microbicides was tested by conducting high resolution MIC assays in the presence of various concentrations of MI. High resolution MICs were determined by adding varying amounts of microbicide to one column of a microtitre plate and doing subsequent ten-fold dilutions using an automated liquid handling system to obtain a series of endpoints ranging from 2 ppm to 10,000 ppm active ingredient.
(§4) For MI combinations, the synergy of the combinations of the present invention was determined against two bacteria, Escherichia coli (E. coli—ATCC #8739) or Pseudomonas aeruginosa (P. aeruginosa—ATCC #15442), a yeast, Candida albicans (C. albicans—ATCC 10231), and a mold, Aspergillus niger (A. niger—ATCC 16404). The bacteria were used at a concentration of about 5×10^6 bacteria per mL and the yeast and mold at 5×10^5 fungi per mL. These microorganisms are representative of natural contaminants in many consumer and industrial applications. […] (bacteria).
(§5) For BIT combinations, the synergy of the combinations of the present invention was determined against a bacterium, Pseudomonas aeruginosa (P. aeruginosa—ATCC #15442), a yeast, Candida albicans (C. albicans—ATCC 10231), and a mold, Aspergillus niger (A. niger—ATCC 16404). The bacteria were used at a concentration of about 5×10^6 bacteria per mL and the yeast and mold at 5×10^5 fungi per mL. These microorganisms are representative of natural contaminants in many consumer and industrial applications. […] (yeast and mold) or 30° C. (bacteria).

[2] = tested on: Pseudomonas aeruginosa (P. aeruginosa—ATCC #15442); assay: Synergy test, microtiter plate high resolution MIC assay, bacterium; set-up: key to SI (calculated synergy index) / SI (synergy index): SI = Qa/QA + Qb/QB (mixture vs. alone end-point concentrations); conditions: P. aeruginosa 15442, M9GY; for Qb: alone or mixed with BIT; for Qb (second component at end point, MIC) / MIC: alone where Qa = 0; for MIC: Pseudomonas aeruginosa
Excerpt: as §1, §2, §3, §4, §5

[3] = tested on: Candida albicans (C. albicans—ATCC 10231); assay: Synergy test, microtiter plate high resolution MIC assay, yeast; conditions: C. albicans 10231, PDB; for Qb: alone or mixed with BIT
Excerpt: as §1, §2, §3, §4, §5

[4] = tested on: Escherichia coli (E. coli—ATCC #8739); assay: Synergy test, microtiter plate high resolution MIC assay, bacterium; conditions: E. coli 8739, M9GY; for Qb: alone or mixed with BIT
Excerpt: as §1, §2
as §3, with “In this method, a wide range of combinations of microbicides was tested by conducting high resolution MIC assays in the presence of various concentrations of MI.” left out
as §4

[5] = benzyl alcohol concentration giving end point (MIC), 48 hours
[6] = synergy index BIT + benzyl alcohol, 48 hours
[7] = caprylyl glycol concentration giving end point (MIC), 24 hours
[8] = synergy index BIT + caprylyl glycol, 24 hours
[9] = diazolidinyl urea concentration giving end point (MIC), 48 hours
[10] = synergy index BIT + diazolidinyl urea, 48 hours
[11] = Table 25, sodium dehydroacetic acid with BIT, 24 hours, alone where Qa = 0

Work on CNC(=O)c1ccccc1SSc1ccccc1C(=O)NC [2,2′-dithiobis(N-methylbenzamide)] yielded an MIC ([1]; ATCC16404, 72 h, 2,2′-dithiobis(N-methylbenzamide) concentration giving end point (MIC), alone or mixed with BIT, A. niger 16404, PDB, 3 days, read-out: Qb) of 1000 µg/mL, an SI ([1]; synergy index BIT + 2,2′-dithiobis(N-methylbenzamide), A. niger 16404, PDB, 3 days) of 1.00 and a Qb ([2]; 2,2′-dithiobis(N-methylbenzamide) concentration giving end point (MIC), 48 hours) of 200 ppm. The SI ([2]; synergy index BIT + 2,2′-dithiobis(N-methylbenzamide), 48 hours) was 1.00.

OCc1ccccc1 [Benzyl alcohol] showed a Qb [3, 5] of 4000 ppm, an SI [3, 6] of 1.00 and a Qb ([4]; benzyl alcohol concentration giving end point (MIC), 24 hours) of 4000 ppm. For the same compound, the SI ([4]; synergy index BIT + benzyl alcohol, 24 hours) was 1.00, the MIC ([1]; ATCC16404, 168 h, benzyl alcohol concentration giving end point (MIC), alone or mixed with BIT, A. niger 16404, PDB, 1 week, read-out: Qb) was 5000 µg/mL and the SI ([1]; synergy index BIT + benzyl alcohol, A. niger 16404, PDB, 1 week) was 1.00. For the same compound, the Qb [2, 5] was 200 ppm and the SI [2, 6] was 1.00.

For CCCCCCC(O)CO (stereo not shown) [Caprylyl glycol], the “MIC of component acting alone (QA / QB)” value ([3]; 48 hours) was 2000 ppm, the Qb [3, 7] was 2000 ppm and the SI [3, 8] was 1.00. For the same compound, the “MIC of component acting alone (QA / QB)” value ([4]; 24 hours) was 2000 ppm, the Qb [4, 7] was 2000 ppm and the SI [4, 8] was 1.00. The “MIC of component acting alone (QA / QB)” value ([1]; A. niger 16404, PDB, 1 week) was 3000 ppm, the Qb ([1]; caprylyl glycol concentration giving end point (MIC), alone or mixed with BIT, A. niger 16404, PDB, 1 week) was 2000 ppm and the SI ([1]; synergy index BIT + caprylyl glycol, A. niger 16404, PDB, 1 week) was 1.00. The “MIC of component acting alone (QA / QB)” value ([2]; 48 hours) was 3000 ppm, the Qb [2, 7] was 3000 ppm and the SI [2, 8] was 1.00.

For O=C(NCO)N(CO)C1(CO)C(=O)NC(=O)N1CO (stereo not shown) [Diazolidinyl urea], the Qb ([3]; diazolidinyl urea concentration giving end point (MIC), 24 hours) was 2000 ppm, the SI ([3]; synergy index BIT + diazolidinyl urea, 24 hours) was 1.00 and the Qb [4, 9] was 100 ppm. For the same compound, the SI [4, 10] was 1.00, the MIC ([1]; ATCC16404, 72 h, diazolidinyl urea concentration giving end point (MIC), alone or mixed with BIT, A. niger 16404, PDB, 3 days, read-out: Qb) was 1000 µg/mL and the SI ([1]; synergy index BIT + diazolidinyl urea, A. niger 16404, PDB, 3 days) was 1.00. It also gave a Qb [2, 9] of 80 ppm and an SI [2, 10] of 1.00.

O=C(O)CN(CCN(CC(=O)O)CC(=O)O)CC(=O)O [EDTA, ethylenediamine tetraacetic acid] showed an MIC ([1]; ATCC16404, 96 h, read-out: Qb) of 2000 µg/mL and an SI ([1]; synergy index BIT + EDTA, A. niger 16404, PDB, 4 days) of 1.00.

In the case of CC(=O)c1c([O-])cc(C)oc1=O.[Na+] [Sodium dehydroacetic acid], the “MIC of component acting alone (QA / QB)” value ([3]; 24 hours) is reported as 40 ppm, the “SI (synergy index)” value ([3]; Table 25, 24 hours) is reported as 1.00 and the “Qb (second component at end point, MIC)” value [3, 11] is reported as 30 ppm. The “MIC of component acting alone (QA / QB)” value ([4]; 24 hours) was 10000 ppm, the “SI (synergy index)” value ([4]; Table 25, 24 hours) was 1.00 and the “Qb (second component at end point, MIC)” value [4, 11] was 10000 ppm. The “MIC of component acting alone (QA / QB)” value ([1]; A. niger 16404, PDB, 4 days) was 80 ppm, the “SI (synergy index)” value ([1]; Table 25, A. niger 16404, PDB, 1 week) was 1.00 and the “Qb (second component at end point, MIC)” value ([1]; Table 25, sodium dehydroacetic acid with BIT, A. niger 16404, PDB, 1 week, alone where Qa = 0) was 200 ppm. For the same compound, the “MIC of component acting alone (QA / QB)” value ([2]; 48 hours) was 10000 ppm, the “SI (synergy index)” value ([2]; Table 25, 24 hours) was 1.00 and the “Qb (second component at end point, MIC)” value ([2]; Table 25, sodium dehydroacetic acid with BIT, 24 hours) was 10000 ppm.

O=C([O-])CNCO.[Na+] [Sodium hydroxymethylglycinate] was tested, and the MIC ([1]; ATCC16404, 72 h, read-out: Qb (second component at end point, MIC)) was 600 µg/mL, the “SI (synergy index)” value ([1]; Table 27, A. niger 16404, PDB, 3 days) was 1.00 and the MIC ([2]; ATCC15442, 24 h, read-out: Qb (second component at end point, MIC), Table 27, Sodium hydroxymethylglycinate with BIT, 24 hours) was 2000 µg/mL. The “SI (synergy index)” value ([2]; Table 27, 24 hours) was 1.00.

Work on CCOC(=O)c1ccc(O)cc1 [ethylparaben] yielded an MIC ([1]; ATCC16404, 72 h, ethylparaben concentration giving end point (MIC), alone or mixed with BIT, A. niger 16404, PDB, 3 days, read-out: Qb) of 2000 µg/mL, an SI ([1]; synergy index BIT + ethylparaben, A. niger 16404, PDB, 3 days) of 1.00 and a Qb ([2]; ethylparaben concentration giving end point (MIC), 48 hours) of 3000 ppm. For the same compound, the SI ([2]; synergy index BIT + ethylparaben, 48 hours) was 1.00.

Compound COC(=O)c1ccc(O)cc1 [methylparaben] has an MIC ([1]; ATCC16404, 96 h, read-out: Qb) of 800 µg/mL, an SI ([1]; synergy index BIT + methylparaben, A. niger 16404, PDB, 4 days) of 1.00 and a Qb ([2]; methylparaben concentration giving end point (MIC), 48 hours) of 3000 ppm. For the same compound, the SI ([2]; synergy index BIT + methylparaben, 48 hours) was 1.00.

With CCCOC(=O)c1ccc(O)cc1 [propylparaben] the MIC ([1]; ATCC16404, 72 h, Table 23, propylparaben with BIT, A. niger 16404, PDB, 3 days, alone where Qa = 0, read-out: Qb (second component at end point, MIC)) was 1000 µg/mL, the “SI (synergy index)” value ([1]; Table 23, A. niger 16404, PDB, 3 days) was 1.00 and the MIC ([2]; ATCC15442, Table 23, propylparaben with BIT, 24 hours, read-out: Qb (second component at end point, MIC)) was 10000 µg/mL. For the same compound, the “SI (synergy index)” value ([2]; Table 23, 24 hours) was 1.00.

For Benzalkonium chloride, the “SI (calculated synergy index)” value ([1]; Table 8, A. niger 16404, PDB, 1 week) was 1.00, the “Qb: end-point activity (MIC) of second component in the mixture (alone, QB, where Qa = 0)” value ([1]; Table 8, A. niger 16404, PDB, 1 week, B = Benzalkonium chloride) was 200 ppm and the “SI (calculated synergy index)” value ([2]; Table 8, 48 hours) was 1.00. For the same compound, the “Qb: end-point activity (MIC) of second component in the mixture (alone, QB, where Qa = 0)” value ([2]; Table 8, 48 hours, B = Benzalkonium chloride) was 40 ppm.

For zinc pyrithione, the “SI (synergy index)” value ([1]; Table 28, A. niger 16404, PDB, 1 week) was 1.00, the “Qb (second component at end point, MIC)” value ([1]; Table 28, zinc pyrithione with BIT, A. niger 16404, PDB, 1 week, alone where Qa = 0) was 8 ppm and the “SI (synergy index)” value ([2]; Table 28, 48 hours) was 1.00. The “Qb (second component at end point, MIC)” value ([2]; Table 28, zinc pyrithione with BIT, 48 hours) was 80 ppm.
